Our source for the melting point values is US8686024B2, “Indoline derivatives” (priority 2009, dated 2014).

SMILES strings stand for the structures.

What is called melting point is the temperature of the solid-liquid transition. On to `CC(C)c1ccc(NC(=O)Oc2ccc3c(c2)CCN3Cc2ccc3cc[nH]c3c2)cc1`, for which the melting point fell in the range of 194 to 196 °C.

In the case of `CC(C)c1ccc(NC(=O)Oc2ccc3c(c2)CCN3)cc1`, the melting point lay in the range of 166 to 170 °C.
